Source: patent publication US9815832B2 (priority 2013, dated 2017)
Where a name gives a salt, the structure may show the parent alone.

biological target: human recombinant PDE4B (Homo sapiens (Human), UniProt Q07343, S133E/S654A/S659A/S661A); conditions: read-out: Human PDE4B FL
Sequence (Q07343 122-736 S133E/S654A/S659A/S661A): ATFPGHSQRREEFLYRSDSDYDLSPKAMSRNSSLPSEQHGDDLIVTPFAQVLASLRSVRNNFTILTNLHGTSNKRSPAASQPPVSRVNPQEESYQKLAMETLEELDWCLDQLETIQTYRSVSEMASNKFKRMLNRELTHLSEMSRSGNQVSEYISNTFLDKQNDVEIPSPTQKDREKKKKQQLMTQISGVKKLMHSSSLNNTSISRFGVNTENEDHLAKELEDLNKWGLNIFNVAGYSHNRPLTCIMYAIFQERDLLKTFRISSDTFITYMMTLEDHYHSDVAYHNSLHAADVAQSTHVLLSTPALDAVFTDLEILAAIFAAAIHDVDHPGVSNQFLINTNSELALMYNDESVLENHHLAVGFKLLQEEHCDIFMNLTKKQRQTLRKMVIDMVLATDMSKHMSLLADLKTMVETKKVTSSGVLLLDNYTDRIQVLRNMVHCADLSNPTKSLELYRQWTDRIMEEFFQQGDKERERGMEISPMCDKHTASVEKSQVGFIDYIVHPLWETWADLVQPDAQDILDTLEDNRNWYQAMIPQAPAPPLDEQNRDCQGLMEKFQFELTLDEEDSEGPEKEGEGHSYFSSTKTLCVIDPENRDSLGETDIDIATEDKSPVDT
Description: Reactions are incubated for 30 min at 25° C. The addition of 20 μL of 8 mg/mL yitrium silicate SPA beads (PerkinElmer) stops the reaction. The plates are sealed (TopSeal, PerkinElmer) and the beads are allowed to settle for 8 hrs, after which they are read on the Trilux Microbeta overnight.

Compared with `CCCNC(=O)c1nc2cccnc2n1-c1ccc(Cl)c(F)c1` [Example 6, 3-(4-Chloro-3-fluorophenyl)-N-propyl-3H-imidazo[4,5-b]pyridine-2-carboxamide], `CCCNC(=O)c1nc2cccnc2n1-c1ccc(Cl)cc1` [Example 13, 3-(4-Chlorophenyl)-N-propyl-3H-imidazo[4,5-b]pyridine-2-carboxamide] is 25-fold higher in IC50: 38.1 nM for the first, 944 nM for the second. The first is the more potent here.

Going from `CN(C)C(=O)c1nc2cccnc2n1-c1ccc(Cl)c(F)c1` [Example 11, 3-(4-Chloro-3-fluorophenyl)-N,N-dimethyl-3H-imidazo[4,5-b]pyridine-2-carboxamide] to `NC(=O)c1nc2cccnc2n1-c1ccc(Cl)c(F)c1` [Example 17, 3-(4-Chloro-3-fluorophenyl)-3H-imidazo[4,5-b]pyridine-2-carboxamide], the IC50 rises from 405 nM to 8510 nM (21-fold). The first is the more potent here.

First: O=C(c1nc2cccnc2n1-c1cc(F)c(Cl)cc1F)N1CCC1 [Example 12, Azetidin-1-yl[3-(4-chloro-2,5-difluorophenyl)-3H-imidazo[4,5-b]pyridin-2-yl]methanone, trifluoroacetate salt]
Second: O=C(c1nc2cccnc2n1-c1ccc(Cl)cc1F)N1CCC1 [Example 22, Azetidin-1-yl[3-(4-chloro-2-fluorophenyl)-3H-imidazo[4,5-b]pyridin-2-yl]methanone]
The IC50 of the first is 2.7-fold lower: 99.4 nM for the first, 273 nM for the second.

First: Cn1ccc(NC(=O)c2nc3cccnc3n2C2CCCC2)n1 [Example 14, 3-Cyclopentyl-N-(1-methyl-1H-pyrazol-3-yl)-3H-imidazo[4,5-b]pyridine-2-carboxamide]
Second: Cn1ccc(NC(=O)c2nc3cccnc3n2-c2ccc(Cl)cc2)n1 [Example 24, 3-(4-Chlorophenyl)-N-(1-methyl-1H-pyrazol-3-yl)-3H-imidazo[4,5-b]pyridine-2-carboxamide]
The IC50 of the first is 3.9-fold higher: 822 nM for the first, 211 nM for the second. The second is the more potent here.

First: O=C(NC1CC1)c1nc2cccnc2n1C1CCOCC1 [Example 15, N-Cyclopropyl-3-(tetrahydro-2H-pyran-4-yl)-3H-imidazo[4,5-b]pyridine-2-carboxamide]
Second: Cc1ccc(-n2c(C(=O)NC3CC3)nc3cccnc32)cc1 [Example 29, N-Cyclopropyl-3-(4-methylphenyl)-3H-imidazo[4,5-b]pyridine-2-carboxamide]
The IC50 of the first is 7.7-fold higher: 1730 nM for the first, 225 nM for the second.

First: O=C(c1nc2cccnc2n1-c1ccc(Cl)cc1)N1CCC1 [Example 16, Azetidin-1-yl[3-(4-chlorophenyl)-3H-imidazo[4,5-b]pyridin-2-yl]methanone]
Second: Cc1ccc(-n2c(C(=O)N3CCC3)nc3cccnc32)cc1F [Example 18, Azetidin-1-yl[3-(3-fluoro-4-methylphenyl)-3H-imidazo[4,5-b]pyridin-2-yl]methanone]
The IC50 of the first is 4-fold higher: 196 nM for the first, 48.7 nM for the second. The second is the more potent here.

First: Cc1ccc(-n2c(C(=O)N3CC(F)C3)nc3cccnc32)cc1F [Example 19, (3-Fluoroazetidin-1-yl)[3-(3-fluoro-4-methylphenyl)-3H-imidazo[4,5-b]pyridin-2-yl]methanone]
Second: O=C(c1nc2cccnc2n1-c1ccc(Cl)c(F)c1)N1CC(F)C1 [Example 21, [3-(4-Chloro-3-fluorophenyl)-3H-imidazo[4,5-b]pyridin-2-yl](3-fluoroazetidin-1-yl)methanone]
The IC50 of the first is 6.6-fold higher: 281 nM for the first, 42.6 nM for the second. The second is the more potent here.

Compared with `N#Cc1c(F)cc(-n2c(C(=O)NC3CC3)nc3cccnc32)cc1F` [Example 20, 3-(4-Cyano-3,5-difluorophenyl)-N-cyclopropyl-3H-imidazo[4,5-b]pyridine-2-carboxamide], `O=C(NC1CC1)c1nc2cccnc2n1-c1ccc(Cl)cc1F` [Example 23, 3-(4-Chloro-2-fluorophenyl)-N-cyclopropyl-3H-imidazo[4,5-b]pyridine-2-carboxamide] is 46-fold higher in IC50: 13.8 nM for the first, 632 nM for the second. The first is the more potent here.

Compared with `O=C(c1nc2cccnc2n1-c1ccc(Cl)cc1F)N1CC(F)C1` [Example 25, [3-(4-Chloro-2-fluorophenyl)-3H-imidazo[4,5-b]pyridin-2-yl](3-fluoroazetidin-1-yl)methanone], `Cc1cc(Cl)ccc1-n1c(C(=O)NC2CC2)nc2cccnc21` [Example 26, 3-(4-Chloro-2-methylphenyl)-N-cyclopropyl-3H-imidazo[4,5-b]pyridine-2-carboxamide] is 2.9-fold lower in IC50: 910 nM for the first, 319 nM for the second.
